In patent US7523563B2, “Process for preparing certain hydrohalide metal complex compounds having a specific coarse structure” (Verla-Pharm Arzneimittelfabrik Apotheker H.J.v. Ehrlich …, priority 2005, dated 2009):
“And” between values parts separate entries of the source, which are not always exact repeats. Equal entries are not always repeated.

Columns and labels:
[1] = Particle size distribution, comparative sieve analysis (Hosokawa Alpine air jet sieve); assay type: physicochemical
Excerpt: The particle size distribution of granular magnesium L-aspartate hydrochloride prepared by the process according to the invention was compared with a finely powdered magnesium L-aspartate hydrochloride prepared by a standard process (disclosed in DE 32 38 118 A1).

[2] = Dissolving properties, time until dissolution complete in water; assay type: physicochemical; details: 10 g in 250 ml of water, stirring 20 revolutions per min; hydrochloride
Description: The dissolving properties of granular magnesium L-aspartate hydrochloride prepared by the process according to the invention were compared with a finely powdered magnesium L-aspartate hydrochloride prepared by a standard process (disclosed in DE 32 38 118 A1). The test arrangement consisted of a glass beaker with stirring bar which was adjusted to 20 revolutions per min. 250 ml of water were introduced and then 10 g of test material were added with the stirrer motor running. The time until dissolution was complete was measured.

[3] = Water uptake capacity or hygroscopicity, desiccator at 75% relative humidity; assay type: physicochemical; details: for percentage increase in weight: hydrochloride
Excerpt: The hygroscopicity of granular magnesium L-aspartate hydrochloride prepared by the process according to the invention was compared with a finely powdered magnesium L-aspartate hydrochloride prepared by a standard process (disclosed in DE 32 38 118 A1). The test arrangement consisted of a desiccator which was adjusted to a relative humidity of 75% with a saturated sodium chloride solution. In each case a defined amount of sample was weighed out and the sample dish was placed in the desiccator. The percentage increase in weight of the weighed amount was determined after 2, 4, 5 and 20 hours.

[4] = Apparent volume of the final product; assay type: physicochemical
Description: A product with a very favourable apparent volume can be achieved in the process according to the invention for preparing the granular hydrohalide of the complex compound of relevance here. The apparent volume [volume of the uncompressed product (ml)/100 g of the product] is preferably in a range from 150 to 180 ml/100 g, with a particularly preferred apparent volume being about 170 ml/100 g.

[5] = Particle size distribution of the final product of Example 1; assay type: physicochemical
[6] = Flow time and flowability, conical flow funnel, 2.9.16 Method Ph. Eur.; assay type: physicochemical; details: 100 g, time for whole sample to flow out of the funnel, two samples each; hydrochloride
Description: The flowability of granular magnesium L-aspartate hydrochloride prepared by the process according to the invention was compared with a finely powdered magnesium L-aspartate hydrochloride prepared by a standard process (disclosed in DE 32 38 118 A1). The test arrangement consisted of a conical flow funnel with a height of 22.5 cm, an upper internal diameter of 7.3 cm and a lower internal diameter of 8.2 mm. The test was carried out by the 2.9.16 Method, Ph. Eur., 4th edition, main volume 2002, as follows. 100 g portions of material were put into the funnel. Opening of the funnel orifice was followed by assessment of the flowability, and the time for the whole sample to flow out of the funnel was determined. Two samples were measured in each case.

[7] = background statement; cited from earlier work
[8] = listed as finely powdered magnesium L-aspartate hydrochloride, hydrochloride
[9] = sieve 63.0 μm, listed as standard process, hydrochloride
[10] = sieve 90.0 μm, listed as standard process, hydrochloride
[11] = sieve 150.0 μm, listed as standard process, hydrochloride
[12] = listed as granular magnesium L-aspartate hydrochloride, hydrochloride
[13] = sieve 63.0 μm, listed as process according to the present invention, hydrochloride
[14] = sieve 90.0 μm, listed as process according to the present invention, hydrochloride
[15] = sieve 150.0 μm, listed as process according to the present invention, hydrochloride

## Cl.N[C@@H](CC(=O)[O-])C(=O)[O-].[Mg+2] [Standard, magnesium L-aspartate hydrochloride, reference compound]
[1]; [8]
  average particle size (d50): 54.9 μm
  maximum particle size (dmax): 260.0 μm
  minimum particle size (dmin): 0.7 μm
[1]; sieve 0 μm (receiver)
  1 − Q: 100.0 %-R
  Q: 0.0 %-D
[1]; sieve 0 μm (receiver), listed as standard process, hydrochloride
  q: 55.4 %-B
[1]; [9]
  1 − Q: 44.6 %-R
  Q: 55.4 %-D
  q: 23.8 %-B
[1]; [10]
  1 − Q: 20.8 %-R
  Q: 79.2 %-D
  q: 15.6 %-B
[1]; [11]
  1 − Q: 5.2 %-R
  Q: 94.8 %-D
  q: 5.2 %-B
[2]
  Dissolving time: 7 min
[3]; testing time 2 h
  percentage increase in weight: 0.35% and 0.30%
[3]; testing time 4 h
  percentage increase in weight: 0.63% and 0.55%
[3]; testing time 5 h
  percentage increase in weight: 0.72% and 0.71%
[3]; testing time 20 h
  percentage increase in weight: 3.06% and 2.70%

## Cl.N[C@@H](CC(=O)[O-])C(=O)[O-].[Mg+2] [Example 1, magnesium L-aspartate hydrochloride]
[4]
  apparent volume [volume of the uncompressed product (ml)/100 g of the product]: 170 ml/100 g
[5]; 100-140 μm
  particle size distribution, fraction of particles: 19.48%
[5]; 140-250 μm
  particle size distribution, fraction of particles: 57.84%
[5]; 250-315 μm
  particle size distribution, fraction of particles: 10.81%
[5]; 315-400 μm
  particle size distribution, fraction of particles: 4.78%
[5]; 400-500 μm
  particle size distribution, fraction of particles: 0.90%
[5]; <100 μm
  particle size distribution, fraction of particles: 6.19%

## Cl.N[C@@H](CC(=O)[O-])C(=O)[O-].[Mg+2] [According to the invention, magnesium L-aspartate hydrochloride]
[1]; [12]
  average particle size (d50): 250.8 μm
  maximum particle size (dmax): 448.7 μm
  minimum particle size (dmin): 48.0 μm
[1]; sieve 0 μm (receiver)
  1 − Q: 100.0 %-R
  Q: 0.0 %-D
[1]; sieve 0 μm (receiver), listed as process according to the present invention, hydrochloride
  q: 0.2 %-B
[1]; [13]
  1 − Q: 99.8 %-R
  Q: 0.2 %-D
  q: 0.6 %-B
[1]; [14]
  1 − Q: 99.2 %-R
  Q: 0.8 %-D
  q: 10.2 %-B
[1]; [15]
  1 − Q: 89.0 %-R
  Q: 11.0 %-D
  q: 61.4 %-B
[1]; sieve 212.0 μm
  1 − Q: 27.6 %-R
  Q: 72.4 %-D
  q: 18.4 %-B
[1]; sieve 315.0 μm
  1 − Q: 9.2 %-R
  Q: 90.8 %-D
  q: 5.4 %-B
[1]; sieve 400.0 μm
  1 − Q: 3.8 %-R
  Q: 96.2 %-D
  q: 3.0 %-B
[1]; sieve 500.0 μm
  1 − Q: 0.8 %-R
  Q: 99.2 %-D
  q: 0.8 %-B
[6]
  Flow time: 10 s
[2]
  Dissolving time: 3 min and 2 min
[3]; 2 to 20 hours
  hygroscopicity compared with a finely powdered product according to the prior art: distinctly reduced
[3]; testing time 2 h
  percentage increase in weight: 0.18% and 0.16%
[3]; testing time 4 h
  percentage increase in weight: 0.33% and 0.30%
[3]; testing time 5 h
  percentage increase in weight: 0.43% and 0.40%
[3]; testing time 20 h
  percentage increase in weight: 1.74% and 1.63%

## Cl.N[C@@H](CC(=O)[O-])C(=O)[O-].[Mg+2] [Magnesium L-aspartate hydrochloride]
[7]
  humidity at which the substance liquefies: more than 50%
